Patent US7928186B2, “Cell permeable bioactive peptide conjugates” (Phoenix Pharmaceuticals, Inc., priority 2006, dated 2011)
Bridge positions count the residues as written; N and C are the ends. Ends that are not written are not given here. * marks the point of attachment. Acm = CC(=O)NC*

Legend:
[1] = test system: rat medulla oblongata (NTS, RVLM); conditions: cited from earlier work
[2] = test system: dissociate and cultured cortical neurons; experiment: Mobilization of intracellular Ca2+ in dissociate cultured cortical neurons (Fura-2 AM fluorescence); format: cell-based, rat (newborn Sprague-Dawley)
Description: Neurons can be isolated from cerebral cortex according to the protocols for postnatal dissociated nuerons as disclosed for example by Huettner, J. E. and Baughman, R. W., Primary Culture of Identified Neurons From the Visual Cortex of Postnatal Rats, Journal of Neurosciences 6; 3044-3060 (1986); Brewer, G. J., Isolation and Culture of Adult Rat Hippocampal Neurons, Journal of Neuroscience Methods, 71:143-155 (1997); and Brailoiu et al., NAADP Potentiates Neurite Outgrowth, Journal of Biological Chemistry (in press), each hereby incorporated by reference. Newborn Sprague-Dawley rates (about 1 day to about 4 days old) were killed by cervical dislocation. Cerebral cortex was removed and quickly immersed in ice-cold phosphate buffer solution. After removal of meninges, tissue was minced into about I-millimeter blocks, incubated for about 45 minutes at 37° C. in Hanks balanced salt solution without Ca^2+ and Mg^2+ (Invitrogen, 1600 Faraday Avenue, Carlsbad, Calif. 92008) and supplemented with about 200 ug/mL penicillin, 0.1% EDTA and papain 0.15 mg/mL (Sigma-Aldrich, St. Louis, Mo.). In accordance with the procedure disclosed by Brewer, the tissue can be further dissociated by gentle mechanical trituration. After centrifugation at 500×g, cells can be re-suspended in fetal serum free media containing Neurobasal-ATM medium supplemented with […], 100 unites penicillin, 100 ug streptomycin, and B27 supplement all of which can be obtained for example from Invitrogen. The resulting cells can be plated at a low density of about 10^4 on round glass coverslips in twenty four well plates. Neurons were cultured at 37° C. in […] and 5% carbon dioxide for about 3 days to about 5 days. The mitotic inhibitor, cytosine P-arabino furanosidde (about 1 μM) which can be obtained from Sigma-Aldrich can be added to cultured neurons to inhibit glial cell proliferation according to the procedure disclosed by Billingsley, M. L. and Mandel, H. G., Effects of DNA Synthesis Inhibitors on Post-Traumatic Glial Cell Proliferation, Journal of Pharmacology and Experimental Therapeutics, 222: 765-770 (1982).
Measurement of mobilized intracellular calcium ion (Ca^2+) in dissociate cultured neurons in response to peptide fragments of HIV-1 Tat polypeptides can be performed as disclosed by Brailoiu E. et al. Neurons cultured about 24 hours on coverslips as above-described were loaded in HBBS with 5μ Fura-2 AM dye at room temperature (about 20° C.) for about 45 minutes in the dark, then washed three times with Fura-2 AM free buffer and allowed to incubate to allow de-esterification of the dye for about 45 minutes. Under these conditions, compartmentalization of the dye was minimal (about 9.2%±0.2% n=6) as judged from the ratio of fluorescence signals after selective permeabilization of the plasma membrane (10 μM β-escein) and full permeabilization of the cultured cells (60 μg/mL saponin). The coverslips were mounted in a custom designed bath on the stage of a S300 Axiovert […] inverted microscope equipped with a C&L Instruments fluorimeter as described by Brailoiu et al. The Fura-2 fluorescent signal was calibrated by successive addition of 20 μg/mL digitonin, 20 mM EDTA, and 0.5 mM MnCl2.
Table 1. Effect of HIV1-Tat Polypeptides on [Ca^2+] Response in Dissociate and Cultured Cortical Neurons

humans = conditions: infusion of normal postprandial concentrations, over 24 h; cited from earlier work

Substance	[Ca^2+] response ([2]; n = 5-10)	further results
Apelin: endogenous ligands at the orphan G-protein coupled receptor, APJ (QRPRLSHKGPMPF; Apelin-13; UniProt Q9ULZ1 65-77, looked up)	–	increase in arterial pressure ([1]; microinjection into either of the NTS and the RVLM): 10-20 mm Hg; decreased phrenic nerve discharge amplitude ([1]; microinjection into the NTS): up to 30%
HIV1 30-47 (Cys30-Cys34)(Cys31-Cys37) (CCFHCQVCFITKALGISY; disulfide 1-5, 2-8) [HIV1 30-47 (Cys 30-Cys34)(Cys 31-Cys37), HIV1 Tat fragment which lacks the second transport peptide region]	–	[Ca^2+] response ([2]; n = 5-10 in a column of its own, listed as 30-47 (Cys 30-Cys34)(Cys 31-Cys37)): No Response; [Ca^2+] response ([2]; n = 5-10 in a column of its own, listed as HIV1 30-47 (Cys30-Cys34)(Cys31-Cys37)): cannot mobilize intracellular calcium ion
HIV1 30-57 (Cys30-Cys31)(Cys 34-Cys37) (CCFHCQVCFITKALGISYGRKKRRQRRR; disulfide 1-2, 5-8) [HIV1 30-57 (Cys30-Cys31)(Cys34-Cys37)]	258 ± 54 nM	–
HIV1 30-57 (Cys30-Cys34)(Cys 31-Cys37) (CCFHCQVCFITKALGISYGRKKRRQRRR; disulfide 1-5, 2-8) [HIV1 30-57 (Cys30-Cys34)(Cys31-Cys37)]	528 ± 60 nM	–
HIV1 30-57 (Cys30-Cys37)(Cys 31-Cys34) (CCFHCQVCFITKALGISYGRKKRRQRRR; disulfide 1-8, 2-5) [HIV1 30-57 (Cys30-Cys37)(Cys31-Cys34), 14]	197 ± 46 nM	–
HIV1 30-57 (Cys31-Cys37)(Cys 31-ACM)(Cys34-ACM) (C(Acm)CFHC(Acm)QVCFITKALGISYGRKKRRQRRR; disulfide 2-8) [HIV1 30-48 (Cys 30 ACM)(Cys 31-Cys 37 disulfide)(Cys 34 ACM) with transport region HIV1 49-57]	197 ± 35 nM	–
HIV1 30-86 (Cys30-Cys34)(Cys31-Cys37) (CCFHCQVCFITKALGISYGRKKRRQRRRAHQNSQTHQASLSKQPTSQPRGDPTGPKE; disulfide 1-5, 2-8)	390 ± 21 nM	–
HIV1 32-62 (Cys34-Cys37): HIV1 Tat polypeptide fragment 32-62 with Cys34-Cys37 disulfide (FHCQVCFITKALGISYGRKKRRQRRRAHQNS; disulfide 3-6)	752 ± 59 nM	–
HIV1 41-60 (KALGISYGRKKRRQRRRAHQ; Human immunodeficiency virus type 1) [peptide fragment of the HIV1 30-86 peptide]	66 ± 13 nM	–
HIV1 48-84 (GRKKRRQRRRAHQNSQTHQASLSKQPTSQPRGDPTGP; Human immunodeficiency virus type 1) [peptide fragment of the HIV1 30-86 peptide]	80 ± 28 nM	–
HIV1 58-86 (AHQNSQTHQASLSKQPTSQPRGDPTGPKE; Human immunodeficiency virus type 1) [peptide fragment of the C-terminal region of the HIV1 30-86 peptide]	54 ± 28 nM	–
HIV1 61-80 (NSQTHQASLSKQPTSQPRGD; Human immunodeficiency virus type 1) [peptide fragment of the C-terminal region of the HIV1 30-86 peptide]	56 ± 20 nM	–
HIV1 62-86 (SQTHQASLSKQPTSQPRGDPTGPKE; Human immunodeficiency virus type 1) [peptide fragment of the C-terminal region of the HIV1 30-86 peptide]	No Response	–
Peptide YY(3-36) [PYY(3-36)]	–	reduction of food intake (humans): 33%
RKKRRQRRR (Human immunodeficiency virus type 1) [HIV1 49-57, Tat transduction domain, transport peptide region alone]	No Response	–
